Reference: US7230002B2, “Dipeptidyl peptidase IV inhibitors; processes for their preparation and compositions thereof” (Glenmark Pharmaceuticals Ltd., priority 2004, dated 2007)
Where a name gives a salt, the structure may show the parent alone.

Target: T1, human recombinant Dipeptidyl peptidase IV enzyme (Homo sapiens, UniProt P27487)
T1 construct: purchased R & D Systems
Assay: In-vitro DPP-IV assay (cleavage of Gly-Pro-AMC)
Type: biochemical
Conditions: at 300 nM, n = 3, read-out: DPP-IV inhibition, percent inhibition at 300 nM
Protocol: Protocol for In-Vitro DPP-IV Assay
DPPIV activity was determined by the cleavage rate of 7-amino-4-methyl coumarin (AMC) from synthetic substrate Glycyl-Prolyl-AMC. In brief, the assay was conducted by adding 10 ng of human recombinant Dipeptidyl peptidase IV enzyme (DPPIV, available commercially from R & D Systems) in 50 μl of the assay buffer (25 mM Tris, pH 7.4, 140 mM NaCl, 10 mM KCl, 1% BSA) to 96 well black flat bottom microtiter plates. The reaction was initiated by adding 50 μl of 100 μM substrate Gly-Pro-AMC. The incubation was carried out in the kinetic mode at 30° C. for 30 minutes. Fluorescence was measured using Fluorostar at excitation filter of 380 nm and emission filter of 460 nm). Test compounds and solvent controls were added as 1 μl additions. A standard curve of free amino methyl coumarin (AMC) was generated using 0–100 μM AMC in the assay buffer. The curve generated, which was linear was used for the interpolation of catalytic activity.
Test compounds dissolved in DMSO at 5–6 concentrations were tested in duplicate along with the solvent control and blank samples. Percent inhibition was calculated at each concentration with respect to the solvent control sample (no test compound added). IC50 values were calculated from 3 experiments using the prism software.

T1 sequence (P27487 whole entry): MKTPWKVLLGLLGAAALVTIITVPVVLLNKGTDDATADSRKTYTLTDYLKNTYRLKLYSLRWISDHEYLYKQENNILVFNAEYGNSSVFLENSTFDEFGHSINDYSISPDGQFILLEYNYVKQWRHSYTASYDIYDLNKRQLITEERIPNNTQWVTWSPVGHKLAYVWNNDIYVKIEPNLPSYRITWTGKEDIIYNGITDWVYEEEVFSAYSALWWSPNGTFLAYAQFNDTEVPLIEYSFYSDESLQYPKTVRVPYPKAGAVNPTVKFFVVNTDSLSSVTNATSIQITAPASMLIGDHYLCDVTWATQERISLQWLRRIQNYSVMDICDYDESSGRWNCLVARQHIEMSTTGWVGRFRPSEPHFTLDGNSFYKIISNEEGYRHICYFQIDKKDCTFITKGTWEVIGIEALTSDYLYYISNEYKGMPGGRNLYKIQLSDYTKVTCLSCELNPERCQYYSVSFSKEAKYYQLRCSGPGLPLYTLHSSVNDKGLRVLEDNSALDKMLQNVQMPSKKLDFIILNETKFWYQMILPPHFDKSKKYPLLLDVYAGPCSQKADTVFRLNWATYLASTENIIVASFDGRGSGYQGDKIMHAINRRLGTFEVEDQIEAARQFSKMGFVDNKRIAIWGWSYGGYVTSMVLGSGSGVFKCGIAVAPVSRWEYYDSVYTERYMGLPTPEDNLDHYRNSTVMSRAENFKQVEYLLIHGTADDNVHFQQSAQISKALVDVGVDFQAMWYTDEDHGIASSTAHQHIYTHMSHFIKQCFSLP

| inhibition at 0.3 µM | Compound |
| --- | --- |
| 6% | N#Cc1ccc(NCC2CCC(NCC(=O)N3CCCC3)C2)nc1 (racemic) [Example-1, cis-(±)-6-(3-[2-(1-Pyrrolidinyl)-2-oxoethylamino]cyclopentylmethylamino)nicotino-nitrile] |
| 25% | N#Cc1ccc(OC[C@H]2CC[C@@H](NCC(=O)N3CCC[C@H]3C#N)C2)c2oc3ccccc3c12 [Example-51, (2S)-1-{2-[(3S,1R)-3-(1-Cyanodibenzo[b,d]furan-4-yloxymethyl)cyclopentylamino]-acetyl}-pyrrolidine-2-carbonitrile] |

Same assay, conditions: n = 3, substrate Gly-Pro-AMC, 30° C., 30 minutes, read-out: DPP-IV inhibition IC50

| Compound | IC50 |
| --- | --- |
| N#Cc1ccc(NC[C@@H]2CC[C@H](NCC(=O)N3CCC[C@H]3C#N)C2)nc1 [Example-10, 6-((1R,3S)-3-{2-[(2S)-2-Cyanopyrrolidin-1-yl]-2-oxoethylamino}cyclopentylmethyl-amino)nicotinonitrile] | 7.81 nM |
| N#Cc1ccc(SCC2CCC(NCC(=O)N3CCC[C@H]3C#N)C2)nc1 (mixture of isomers) [Example-38, 6-((1SR,3RS)-3-{2-[(2S)-2-Cyanopyrrolidin-1-yl]-2-oxoethylamino}cyclopentyl-methylsulfanyl)nicotinonitrile] | 9.42 nM |
| N#C[C@@H]1CCCN1C(=O)CN[C@H]1C=C[C@@H](CSc2ccccn2)C1 [Example-35, (2S)-1-{2-[(4S,1R)-4-(2-Pyridylsulfanylmethyl)cyclopent-2-enealino]acetyl}-pyrrolidine-2-carbonitrile] | 70.9 nM |
| N#Cc1ccc(NCC2CCC(NCC(=O)N3C[C@@H](F)C[C@H]3C#N)C2)nc1 (mixture of isomers) [Example-14, 6-((1SR,3RS)-3-{2-[(2S,4S)-2-Cyano-4-fluoropyrrolidin-1-yl]-2-oxoethylamino}-cyclopentylmethylamino)nicotinonitrile] | 3.58 nM |
| N#Cc1ccc(OC[C@H]2CC[C@@H](NCC(=O)N3CCC[C@H]3C#N)C2)cc1 [Example-48, (2S)-1-{2-[(3S,1R)-3-(4-Cyanophenoxymethyl)cyclopentylamino]acetyl}-pyrrolidine-2-carbonitrile hydrochloride] | 13.5 nM |
| N#Cc1ccc(OC[C@H]2CC[C@@H](NCC(=O)N3C[C@@H](F)C[C@H]3C#N)C2)cc1F [Example-50, (2S,4S)-1-{2-[(3S,1R)-3-(4-Cyano-3-fluorophenoxymethyl)cyclopentylamino]acetyl}-4-fluoro-pyrrolidine-2-carbonitrile] | 2.56 nM |
| N#C[C@@H]1C[C@H](F)CN1C(=O)CN[C@@H]1CC[C@H](CNc2ccc([N+](=O)[O-])cc2F)C1 [Example-26] | 5.16 nM |
| N#C[C@@H]1CCCN1C(=O)CN[C@@H]1CC[C@H](CNc2nnnn2-c2ccccc2)C1 [Example-22, (2S)-1-{2-[(3S,1R)-3-(1-Phenyl-1H-1,2,3,4-tetraazol-5-ylaminomethyl)cyclopentyl-amino]acetyl}-pyrrolidine-2-carbonitrile] | 10.4 nM |
| N#Cc1ccc(SCC2CCC(NCC(=O)N3CCC[C@H]3C#N)C2)nc1 (mixture of isomers) [Example-39, 6-((1SR,3RS)-3-{2-[(2S)-2-Cyanopyrrolidin-1-yl]-2-oxoethylamino}cyclopentyl-methylsulfanyl)nictinonitrile maleate] | 11.1 nM |
| N#Cc1ccc(NC[C@@H]2CC[C@@H](NCC(=O)N3CSC[C@H]3C#N)C2)nc1 (racemic) [Example-17, (4S)-3-{2-(1RS,3RS)-3-[(5-Cyano-2-pyridylaminomethyl)cyclopentylamino]acetyl}-1,3-thiazolane-4-carbonitrile dihydrochloride] | 2.93 nM |
| N#Cc1ccc(NCC2CCC(NCC(=O)N3CCC[C@H]3C#N)C2)nc1 (mixture of isomers) [Example-7, 6-((1SR,3RS)-3-{2-[(2S)-2-Cyanopyrrolidin-1-yl]-2-oxoethylamino}cyclopentyl-methylamino)nicotinonitrile citrate] | 11.7 nM |
| N#Cc1ccc(NC[C@H]2CC[C@@H](NCC(=O)N3C[C@@H](F)C[C@H]3C#N)C2)nc1 [Example-15, 6-((1S,3R)-3-{2-[(2S,4S)-2-Cyano-4-fluoropyrrolidin-1-yl]-2-oxoethylamino}cyclo-pentylmethylamino)nicotinonitrile] | 3.17 nM |
| N#Cc1ccc(NC[C@@H]2CC[C@H](NCC(=O)N3CCC[C@H]3C#N)C2)nc1 [Example-11, 6-((1R,3S)-3-{2-[(2S)-2-Cyanopyrrolidin-1-yl]-2-oxoethylamino}cyclopentylmethyl-amino)nicotinonitrile dihydrochloride] | 13.9 nM |
| N#C[C@@H]1CCCN1C(=O)CNC1CCC(CNc2cc(F)c(F)cc2F)C1 (mixture of isomers) [Example-27, (2S)-1-{2-[(3SR,1RS)-3-(2,4,5-Trifluoroanilinomethyl)cyclopentylamino]acetyl}-pyrrolidine-2-carbonitrile] | 17.4 nM |
| N#Cc1ccc(NC[C@H]2CC[C@@H](NCC(=O)N3CCC[C@H]3C#N)C2)nc1 [Example-8, 6-((1S,3R)-3-{2-[(2S)-2-Cyanopyrrolidin-1-yl]-2-oxoethylamino}cyclopentylmethyl-amino)nicotinonitrile] | 10.6 nM |
| N#Cc1ccc(NC[C@H]2CC[C@@H](NCC(=O)N3CCC[C@H]3C#N)C2)nc1 [Example-9, 6-((1S,3R)-3-{2-[(2S)-2-Cyanopyrrolidin-1-yl]-2-oxoethylamino}cyclopentylmethyl-amino)nicotinonitrile dihydrochloride] | 6.27 nM |
| N#Cc1ccc(NC[C@@H]2CC[C@@H](NCC(=O)N3CCC[C@H]3C#N)C2)nc1 (racemic) [Example-13, 6-((1RS,3RS)-3-{2-[(2S)-2-Cyanopyrrolidin-1-yl]-2-oxoethylamino}cyclopentyl-methylamino)nicotinonitrile] | 12.1 nM |
| N#C[C@@H]1CCCN1C(=O)CNC1CCC(CNc2ccc([N+](=O)[O-])cc2F)C1 (mixture of isomers) [Example-24, (2S)-1-{2-[(3SR,1RS)-3-(2-Fluoro-4-nitroanilinomethyl)cyclopentylamino]acetyl}-pyrrolidine-2-carbonitrile] | 6.29 nM |
| N#Cc1ccc(OC[C@H]2CC[C@@H](NCC(=O)N3CCC[C@H]3C#N)C2)cc1F [Example-49, (2S)-1-{2-[(3S,1R)-3-(4-Cyano-3-fluorophenoxymethyl)cyclopentylamino]acetyl}-pyrrolidine-2-carbonitrile] | 23.5 nM |

Results, then the molecule that gave them:

| IC50 | Compound |
| --- | --- |
| 37 nM | N#C[C@@H]1CCCN1C(=O)CN[C@H]1CC[C@@H](CSc2ccccc2)C1 [Example-32, (2S)-1-{2-[(1S,3R)-3-Phenylsulfanylmethylcycopentylamino]acetyl}-pyrrolidine-2-carbonitrile] |
| 9.8 nM | N#C[C@@H]1CCCN1C(=O)CNC1CCC(CNc2ncccn2)C1 (mixture of isomers) [Example-18, (2S)-1-{2-[(3SR,1RS)-3-(2-Pyrimidinylaminomethyl)cyclopentylamino)acetyl}-pyrrolidine-2-carbonitrile] |
| 6.74 nM | N#C[C@@H]1CCCN1C(=O)CN[C@H]1CC[C@@H](CNc2ncccn2)C1 [Example-21] |
| 57.3 nM | N#C[C@@H]1CCCN1C(=O)CN[C@H]1CC[C@@H](CS(=O)(=O)c2ccccc2)C1 [Example-33, (2S)-1-{2-[(1S,3R)-3-Phenylsulfonylmethylcyclopentylamino]acetyl}-pyrrolidine-2-carbonitrile] |
| 49.9 nM | N#C[C@@H]1CCCN1C(=O)CN[C@H]1CC[C@@H](COc2ccc([N+](=O)[O-])cc2)C1 [Example-45, (2S)-1-{2-[(3R,1S)-3-(4-Nitrophenoxymethyl)cyclopentylamino]acetyl}-pyrrolidine-2-carbonitrile] |
| 22.3 nM | N#C[C@@H]1CCCN1C(=O)CNC1CCC(CSc2ccccc2)C1 (mixture of isomers) [Example-28, (2S)-1-{2-[(3SR,1RS)-3-Phenylsulfanylmethylcyclopentylamino]acetyl}-pyrrolidine-2-carbonitrile] |
| 15.8 nM | N#C[C@@H]1CCCN1C(=O)CN[C@@H]1CC[C@H](CSc2ncccn2)C1 [Example-41, (2S)-1-{2-[(3S,1R)-3-(2-Pyrimidinylsulfanylmethyl)cyclopentylamino]acetyl}-pyrrol-idine-2-carbonitrile] |
| 10.6 nM | N#C[C@@H]1CCCN1C(=O)CN[C@H]1CC[C@@H](CSc2ccccn2)C1 [Example-36, (2S)-1-{2-[(1S,3R)-3-(2-Pyridylsulfanylmethyl)cyclopentylamino]acetyl}-pyrrolidine-2-carbonitrile] |
| 66 nM | N#C[C@@H]1CCCN1C(=O)CN[C@H]1CC[C@@H](CS(=O)(=O)c2ccccn2)C1 [Example-37, (2S)-1-{2-[(1S,3R)-3-(2-Pyridylsulfonylmethyl)cyclopentylamino]acetyl}-pyrrolidine-2-carbonitrile] |
| 25.8 nM | N#C[C@@H]1CCCN1C(=O)CN[C@@H]1CC[C@H](COc2ccc([N+](=O)[O-])cc2)C1 [Example-44, (2S)-1-{2-[(3S,1R)-3-(4-Nitrophenoxymethyl)cyclopentylamino]acetyl}-pyrrolidine-2-carbonitrile] |
| 63.4 nM | N#C[C@@H]1CCCN1C(=O)CN[C@@H]1CC[C@H](CSc2ccccc2)C1 [Example-30, (2S)-1-{2-[(3S,1R)-3-Phenylsulfanylmethylcycopentylamino]acetytl}-pyrrolidine-2-carbonitrile] |
